Data from patent US12138256B2, “Treatment of cardiopulmonary disorders” (Bayer Aktiengesellschaft, priority 2021, dated 2024).
Values joined by “and” are separate entries in the source; they are usually repeats but may differ in a detail not shown here. Identical values can stand only once.

Tested on: thromboxane analog U46619 induced PAH in minipigs
Experiment: Haemodynamics (PAP, BP) in the anesthetized thromboxane challenged PAH minipig after inhaled (nebulized) application (C-2.1)
Assay type: in vivo, Göttingen minipig
Settings: inhaled; for PAP % changes vs prevalue, mean: n = 3; for BP % change vs. baseline / PAP % change vs. baseline: individual animals
Procedure, shortened: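 Anesthetized, ventilated Göttingen minipigs (2-6 kg) given continuous infusion (0.3-0.75 μg/kg/min) to raise mean PAP above 25 mmHg, dosing starting after a 30 min plateau. Compound in 1% DMSO/0.2% citric acid, pH 8, nebulized via Aeroneb Pro into the inspiratory arm (~7 min; stock 300 μg/kg). PAP by Swan-Ganz catheter, BP via carotid catheter.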

[1] = 100 μg/kg nominal dose, time 80 min
[2] = 100 μg/kg nominal dose, time 90 min
[3] = 100 μg/kg nominal dose, time 100 min
[4] = 100 μg/kg nominal dose, time 110 min
[5] = 100 μg/kg nominal dose, time 120 min
[6] = 100 μg/kg nominal dose, time 130 min
[7] = 100 μg/kg nominal dose, time 140 min
[8] = 100 μg/kg nominal dose, time 150 min
[9] = 100 μg/kg nominal dose, time 160 min
[10] = 100 μg/kg nominal dose, time 170 min
[11] = 100 μg/kg nominal dose, time 180 min

O=C(O)c1ccc(CCN(CCc2ccccc2OCc2ccc(-c3ccc(C(F)(F)F)cc3)cc2Cl)[C@H]2CCCc3nc(C(=O)O)ccc32)cc1 [comparative example 11, (5S)-5-{[2-(4-carboxyphenyl)ethyl][2-(2-{[3-chloro-4′-(trifluoromethyl)[biphenyl]-4-yl]methoxy}phenyl)ethyl]amino}-5,6,7,8-tetrahydroquinoline-2-carboxylic acid]
PAP % changes vs prevalue, mean (10 μg/kg nominal dose, time 0 min): 0%
PAP % changes vs prevalue, mean (10 μg/kg nominal dose, time 10 min): 0.6%
PAP % changes vs prevalue, mean (10 μg/kg nominal dose, time 20 min): 0.2%
PAP % changes vs prevalue, mean (10 μg/kg nominal dose, time 30 min): −0.7%
PAP % changes vs prevalue, mean (10 μg/kg nominal dose, time 40 min): −1.5%
PAP % changes vs prevalue, mean (10 μg/kg nominal dose, time 50 min): −2.3%
PAP % changes vs prevalue, mean (10 μg/kg nominal dose, time 60 min): −3.5%
PAP % changes vs prevalue, mean (10 μg/kg nominal dose, time 70 min): −4.2%
PAP % changes vs prevalue, mean (10 μg/kg nominal dose, time 80 min): −3.7%
PAP % changes vs prevalue, mean (10 μg/kg nominal dose, time 90 min): −4.3%
PAP % changes vs prevalue, mean (10 μg/kg nominal dose, time 100 min): −5.3%
PAP % changes vs prevalue, mean (10 μg/kg nominal dose, time 110 min): −6.2%
PAP % changes vs prevalue, mean (10 μg/kg nominal dose, time 120 min): −6.7%
PAP % changes vs prevalue, mean (10 μg/kg nominal dose, time 130 min): −6.2%
PAP % changes vs prevalue, mean (10 μg/kg nominal dose, time 140 min): −7%
PAP % changes vs prevalue, mean (10 μg/kg nominal dose, time 150 min): −7.6%
PAP % changes vs prevalue, mean (10 μg/kg nominal dose, time 160 min): −7.6%
PAP % changes vs prevalue, mean (10 μg/kg nominal dose, time 170 min): −8.2%
PAP % changes vs prevalue, mean (10 μg/kg nominal dose, time 180 min): −8.0%
PAP % changes vs prevalue, mean (10 μg/kg nominal dose, time 190 min): −7.8%
PAP % changes vs prevalue, mean (10 μg/kg nominal dose, time 200 min): −7.3%
PAP % changes vs prevalue, mean (10 μg/kg nominal dose, time 210 min): −7.5%
PAP % changes vs prevalue, mean (10 μg/kg nominal dose, time 220 min): −7.2%
PAP % changes vs prevalue, mean (10 μg/kg nominal dose, time 230 min): −7.2%
PAP % changes vs prevalue, mean (10 μg/kg nominal dose, time 240 min): −7.6%
PAP % changes vs prevalue, mean (30 μg/kg nominal dose, time 0 min): 0%
PAP % changes vs prevalue, mean (30 μg/kg nominal dose, time 10 min): 0.3%
PAP % changes vs prevalue, mean (30 μg/kg nominal dose, time 20 min): −2.0%
PAP % changes vs prevalue, mean (30 μg/kg nominal dose, time 30 min): −4.6%
PAP % changes vs prevalue, mean (30 μg/kg nominal dose, time 40 min): −7.8%
PAP % changes vs prevalue, mean (30 μg/kg nominal dose, time 50 min): −9.8%
PAP % changes vs prevalue, mean (30 μg/kg nominal dose, time 60 min): −11.8%
PAP % changes vs prevalue, mean (30 μg/kg nominal dose, time 70 min): −14.1%
PAP % changes vs prevalue, mean (30 μg/kg nominal dose, time 80 min): −14.2%
PAP % changes vs prevalue, mean (30 μg/kg nominal dose, time 90 min): −14.4%
PAP % changes vs prevalue, mean (30 μg/kg nominal dose, time 100 min): −14.8%
PAP % changes vs prevalue, mean (30 μg/kg nominal dose, time 110 min): −15.3%
PAP % changes vs prevalue, mean (30 μg/kg nominal dose, time 120 min): −15.3%
PAP % changes vs prevalue, mean (30 μg/kg nominal dose, time 130 min): −15.5%
PAP % changes vs prevalue, mean (30 μg/kg nominal dose, time 140 min): −15.3%
PAP % changes vs prevalue, mean (30 μg/kg nominal dose, time 150 min): −16.3%
PAP % changes vs prevalue, mean (30 μg/kg nominal dose, time 160 min): −16.3%
PAP % changes vs prevalue, mean (30 μg/kg nominal dose, time 170 min): −14.9%
PAP % changes vs prevalue, mean (30 μg/kg nominal dose, time 180 min): −14.7%
PAP % changes vs prevalue, mean (30 μg/kg nominal dose, time 190 min): −15.1%
PAP % changes vs prevalue, mean (30 μg/kg nominal dose, time 200 min): −15.3%
PAP % changes vs prevalue, mean (30 μg/kg nominal dose, time 210 min): −13.8%
PAP % changes vs prevalue, mean (30 μg/kg nominal dose, time 220 min): −13.6%
PAP % changes vs prevalue, mean (30 μg/kg nominal dose, time 230 min): −12.8%
PAP % changes vs prevalue, mean (30 μg/kg nominal dose, time 240 min): −13.4%
PAP % changes vs prevalue, mean (100 μg/kg nominal dose, time 0 min): 0%
PAP % changes vs prevalue, mean (100 μg/kg nominal dose, time 10 min): −2.1%
PAP % changes vs prevalue, mean (100 μg/kg nominal dose, time 20 min): −7.2%
PAP % changes vs prevalue, mean (100 μg/kg nominal dose, time 30 min): −14.6%
PAP % changes vs prevalue, mean (100 μg/kg nominal dose, time 40 min): −18.1%
PAP % changes vs prevalue, mean (100 μg/kg nominal dose, time 50 min): −22.2%
PAP % changes vs prevalue, mean (100 μg/kg nominal dose, time 60 min): −25.1%
PAP % changes vs prevalue, mean (100 μg/kg nominal dose, time 70 min): −27.0%
BP % change vs. baseline [1]: 103.2% and 100.0% and 100.1%
PAP % change vs. baseline [1]: 103.3% and 100.0% and 98.5%
PAP % changes vs prevalue, mean [1]: −27.9%
BP % change vs. baseline [2]: 98.8% and 98.2% and 100.1%
PAP % change vs. baseline [2]: 98.8% and 102.2% and 99.6%
PAP % changes vs prevalue, mean [2]: −28.9%
BP % change vs. baseline [3]: 101.0% and 100.0% and 100.1%
PAP % change vs. baseline [3]: 99.4% and 97.3% and 97.5%
PAP % changes vs prevalue, mean [3]: −31.1%
BP % change vs. baseline [4]: 98.8% and 99.1% and 98.2%
PAP % change vs. baseline [4]: 94.0% and 90.4% and 94.4%
PAP % changes vs prevalue, mean [4]: −30.8%
BP % change vs. baseline [5]: 98.8% and 98.2% (2×)
PAP % change vs. baseline [5]: 87.4% and 80.2% and 88.8%
PAP % changes vs prevalue, mean [5]: −31.3%
BP % change vs. baseline [6]: 98.8% and 98.2% and 99.2%
PAP % change vs. baseline [6]: 84.3% and 75.6% and 86.1%
PAP % changes vs prevalue, mean [6]: −31.2%
BP % change vs. baseline [7]: 98.8% and 96.5% and 102.0%
PAP % change vs. baseline [7]: 82.2% and 69.4% and 82.1%
PAP % changes vs prevalue, mean [7]: −31.6%
BP % change vs. baseline [8]: 97.7% and 95.6% and 103.0%
PAP % change vs. baseline [8]: 80.0% and 67.4% and 77.3%
PAP % changes vs prevalue, mean [8]: −31.1%
BP % change vs. baseline [9]: 98.8% and 93.9% and 101.1%
PAP % change vs. baseline [9]: 78.2% and 66.2% and 74.6%
PAP % changes vs prevalue, mean [9]: −30.1%
BP % change vs. baseline [10]: 98.8% and 95.6% and 99.2%
PAP % change vs. baseline [10]: 78.1% and 65.9% and 72.4%
PAP % changes vs prevalue, mean [10]: −31.1%
BP % change vs. baseline [11]: 97.7% and 92.1% and 99.2%
PAP % change vs. baseline [11]: 78.5% and 62.7% and 72.2%
PAP % changes vs prevalue, mean [11]: −31.1%
BP % change vs. baseline (100 μg/kg nominal dose, time 190 min): 98.8% and 91.2% and 96.3%
